The test system of data set [1] is Normal human keratinocytes. The data set can be described thus: Rate of DNA synthesis in keratinocytes (3H-thymidine incorporation; a decrease indicates growth inhibition / differentiation). Format: cell-based. To be noted: for activity at 3 µM: 3 μM lipid alone, read-out: DNA synthesis, 0 nM 25-OH-D3; for cell growth inhibition: Table 1 (image). The method, then:
Methodology Used for Determining the Rate of DNA Synthesis in Keratinocytes After Treatment With Various Actives
• 1. Normal human keratinocytes isolated from neonatal foreskins by trypsin treatment were grown in DME medium/10% fetal calf serum in the presence of irradiated 3T3 mouse fibroblasts for establishing dividing keratinocyte colonies. Keratinocytes were grown under the above condition until their third passage. • 2. For the experiments, third passage keratinocytes were plated into a serum-free keratinocyte growth medium (KGM; obtained from Clonetics Corporation, San Diego, CA) containing 0.15 mM calcium. 20,000 to 30,000 cells were plated into each well of 24 well cell culture plates and grown for 5 days, until the cells reach about 80% confluence. • 3. Medium was changed to fresh medium and the various test materials were added to the medium from an ethanolic stock solution (10 AM). The final ethanol concentration in the cultures was kept below 0.2%. Control cultures received no tested material but were dosed with 0.2% ethanol. Each compound or combination was tested in three separate wells. By 4PM, 1 uCi of ³H-thymidine (Amersham Corp., Sp activity 40 Ci/mmol) was added to the 1 ml medium in each well. The cells were incubated overnight and 24 hours later (10 AM next day) the amount of ³H-thymidine associated with the cellular DNA of keratinocytes was assessed as described below. • 4. The medium was aspirated, and the wells washed with 1 ml phosphate-buffered saline. The DNA and proteins of the cells in the plate were then precipitated by adding 1 ml of ice-cold 10% trichloroacetic acid (TCA). The plates were left on ice for 30 minutes to complete the precipitation process. TCA was then aspirated and each well was then washed four times with 5% TCA. The plates were then dried on a filter pad and the cells in the wells were dissolved in 0.5 ml of 0.1 N sodium hydroxide. The sodium hydroxide was then neutralized using 0.1 N hydrochloric acid and the solution (1 ml total volume) was then transferred to a scintillation vial. 100 ul samples from each vial were used for protein assay using BCA protein assay reagent obtained from Pierce Chemical Company. 8 ml of a scintillation fluid (Ecolume) was added to the rest of the solution in the vial, and the vials were counted in a scintillation counter to determine the amount of radioactivity in each vial. The DNA synthesis rate was then calculated as cpm ³H thymidine incorporated into total cellular DNA/microgram of cell protein for each individual well. Mean and standard deviation for each group was also calculated. […] All lipids listed in Tables 1-5 below were synthesized in-house. 25-OH-D₃ and 1,25-(OH)₂D₃ were obtained from Hoffman La Roche. Vitamin D ₃ was obtained from Sigma. • 6.
(Dividing cells build labelled thymidine or BrdU into new DNA.)

A further data set deals with keratinocytes. As to conditions: as shown by Bikle et al.; cited from earlier work.
The test system of data set [2] is Normal human keratinocytes. Description: Vitamin D3 metabolites' uptake by keratinocytes (cell associated radioactivity). To be noted: for cell associated radioactivity: 60 picomolar; for rate of uptake by keratinocytes: Table 6, in words. Format: in vitro ADME. The method, then:
Vitamin D₃ Metabolites' Uptake:
Normal human keratinocytes were grown to confluence in Keratinocyte growth medium (KGM) containing 0.15 mM calcium. Medium was changed to fresh medium. The cells were then incubated in duplicate with 10,000 cpm (60 picomolar, or 25 picogram/ml medium) of 25-OH-D₃ or 1,25-(OH) ₂D₃ for various times (0 to 240 minutes). At different time intervals indicated in the Table below, the medium of appropriate wells were aspirated, and the wells were washed three times with a 0.2% bovine serum albumin solution in 50 mM Tris/0.15 M sodium chloride buffer pH 7.4. After the wash the cells in the wells were dissolved in 0.1 N sodium hydroxide, neutralized with 0. 1 N hydrochloric acid, mixed with 5 ml of scintillation fluid (Ecolume) and counted in a beta counter. The amount of cpm associated with the cells was calculated as the percent of total cpm added for each time point studied. Data in the table is expressed as cell associated radioactivity as % of total added. Each reported result is a mean of duplicate determinations.

[3] abbreviates: Homo sapiens, Keratinocyte, 24 h, Table 5.
Setting [4] is: 100 nM, alone, 25-OH-D3 in two experiments, 1,25-(OH)2D3 in one experiment.
The mark [5] stands for this setting: 1000 nM, compound alone, consistently observed only at this concentration.
The mark [6] stands for this setting: 0 minutes, mean of duplicate determinations.

The source of these data is patent publication EP0711558A1, “Compositions for topical application to skin, hair and nails” (UNILEVER PLC, priority 1994, dated 1996).

Read-outs that look alike come from different tables or passages of the source.

Take `CCCCCCCCCCCCCCC(O)CN(CCO)C(=O)CCCCC` (stereo not drawn) [pseudoceramide (Formula D)]: the activity at 3 µM in data set [1] (setting [3]) was 62 ± 12.8%.
`C=C1/C(=C\C=C2/CCC[C@]3(C)[C@@H]([C@H](C)CCCC(C)(C)O)CC[C@@H]23)C[C@@H](O)C[C@@H]1O` [1,25-(OH)2D3, 1,25-dihydroxycholecalciferol]: the catabolism by keratinocytes entry in the data set with keratinocytes is “catabolized to inactive metabolites rapidly”. For the same compound, the figures for the cell growth inhibition result in data set [1] (setting [4]) and in data set [1] (setting [5]) were “cell growth inhibition was also observed” and “statistically significant cell growth inhibition”, respectively. Besides, the cell associated radioactivity in data set [2] (setting [6]) is on record as 0.8 % of total added; in data set [2] (2 minutes), 2.7 % of total added; in data set [2] (5 minutes), 4.2 % of total added; in data set [2] (10 minutes), 13.0 % of total added; in data set [2] (15 minutes) it was 10.0 % of total added; in data set [2] (30 minutes), 20.0 % of total added. Also, the cell associated radioactivity in data set [2] (60 minutes) is recorded as 15.6 % of total added; in data set [2] (120 minutes), 26.2 % of total added; in data set [2] (240 minutes), 30.8 % of total added. Besides, the “rate of uptake by keratinocytes” value in data set [2] is “rapidly taken up”.
Take `CCCCCCCCCCCCCCCCN(CC(O)CO)C(=O)CCCCC` (stereo not drawn) [neoceramide (Formula G), N-(2,3-dihydroxypropyl)-N-(hexadecyl)hexanamide]: in data set [1] (setting [3]), the activity at 3 µM came to 103 ± 12.3%.
Turning to `CCCCCCCCCCCCCCCCOCC(O)CN(CCO)C(C)=O` (stereo not drawn) [pseudoceramide (Formula E)], the activity at 3 µM in data set [1] (setting [3]) was 95.9 ± 22%.
On the same count and under the same terms, with `CCCCCCCCCCCCN(CC(O)CO)C(=O)C(O)CCCCCC` (stereo not drawn) [neoceramide (Formula M), N-(2,3-dihydroxypropyl)-N-(dodecyl)-2-hydroxyoctnamide] the figure was 81.5 ± 6.4%; with `CCCCCCCCCCCCCCCCN(CC(O)CO)C(=O)C(O)CCCCCC` (stereo not drawn) [neoceramide (Formula H), N-(2,3-dihydroxypropyl)-N-(hexadecyl)-2-hydroxyoctanamide], 85.7 ± 0.9%.
Consider `CCCCCCCCCCCCCCCCN(CC(O)CO)C(C)=O` (stereo not drawn) [neoceramide (Formula F), N-(2,3-dihydroxypropyl)-N-(hexadecyl)ethanamide], for which, in data set [1] (setting [3]), the activity at 3 µM was determined as 81.1 ± 4.9%.
Regarding `C=C1CC[C@H](O)C/C1=C/C=C1\CCC[C@]2(C)[C@@H]([C@H](C)CCCC(C)(C)O)CC[C@@H]12` [Formula 25-OH-D3, 25-hydroxycholecalciferol], the activity at 0.001 µM in data set [1] (Homo sapiens, Keratinocyte, 24 h, 1 nM 25-OH-D3, no ceramide, read-out: DNA synthesis, 25-OH-D3 alone) is 99.3 ± 1.91%. Further, the activity at 0.01 µM in data set [1] (Homo sapiens, Keratinocyte, 24 h, 10 nM 25-OH-D3, no ceramide, read-out: DNA synthesis, 25-OH-D3 alone) stood at 97.2 ± 5.92%; in data set [1] (Homo sapiens, Keratinocyte, 24 h, Table 4, 10 nM vitamin D3 or its metabolite, no ceramide, read-out: DNA synthesis, No ceramide), 95.3 ± 6.9%; in data set [1] (Homo sapiens, Keratinocyte, 24 h, Table 5, 10 nM 25-OH-D3, No ceramide, read-out: DNA synthesis, 10 nM 25-OH-D3), 95.3 ± 6.9%. Moreover, the activity at 0.1 µM was determined as 86.5 ± 5.47% in data set [1] (Homo sapiens, Keratinocyte, 24 h, 100 nM 25-OH-D3, no ceramide, read-out: DNA synthesis, 25-OH-D3 alone); 88.5 ± 7.2% in data set [1] (Homo sapiens, Keratinocyte, 24 h, Table 4, 100 nM vitamin D3 or its metabolite, no ceramide, read-out: DNA synthesis, No ceramide); 88.5 ± 7.2% in data set [1] (Homo sapiens, Keratinocyte, 24 h, Table 5, 100 nM 25-OH-D3, No ceramide, read-out: DNA synthesis, 100 nM 25-OH-D3). The activity at 1 µM in data set [1] (Homo sapiens, Keratinocyte, 24 h, 1000 nM 25-OH-D3, no ceramide, read-out: DNA synthesis, 25-OH-D3 alone) was 67.8 ± 5.92%. In data set [1] (Homo sapiens, Keratinocyte, 24 h, 25-OH-D3 employed alone, read-out: concentration of 25-OH-D3 at which inhibition of keratinocyte growth was observed), the minimal effective concentration lay within 0.1 to 1 µM. For the same compound, the cell growth inhibition result in data set [1] (setting [4]) is given as “cell growth inhibition was also observed”; in data set [1] (setting [5]), “statistically significant cell growth inhibition”. Moreover, the cell associated radioactivity in data set [2] (setting [6]) is on record as 2.5 % of total added; in data set [2] (2 minutes), 3.2 % of total added; in data set [2] (5 minutes), 0.3 % of total added; in data set [2] (10 minutes), 3.4 % of total added; in data set [2] (15 minutes), 8.3 % of total added; in data set [2] (30 minutes), 8.1 % of total added. The values for the cell associated radioactivity in data set [2] (60 minutes), in data set [2] (120 minutes) and in data set [2] (240 minutes) were 6.2 % of total added, 6.8 % of total added and 9.8 % of total added, respectively. Also, in data set [2], the “rate of uptake by keratinocytes” value is “substantially slower rate”.
On to `C=C1CC[C@H](O)C/C1=C/C=C1\CCC[C@]2(C)[C@@H]([C@H](C)CCCC(C)C)CC[C@@H]12` [vitamin D3, Vitamin D₃], for which, in data set [1] (vitamin D3 employed alone (Table 4)), the growth inhibition result is “does not show statistically significant growth inhibition”. Further, the “synergy with the ceramide in inhibiting keratinocyte growth” value in data set [1] (with ceramide of Formula A, even at 100 nM vitamin D3) is recorded as “did not show any synergy”.
